Laboratory results taken from US4895844A, “Indole alkaloid compositions and their methods of use” (Harbor Branch Oceanographic Institution, Inc., priority 1989, dated 1990).
In brackets after ≈: the same amount, converted by molar mass.

Experiments:
Assay type in all cases: cell-based
[1] = system: HCT-8 human colon tumor cells; assay: Human tumor cell line assay, HCT-8 (colon); settings: 120 hours, read-out: Activity at prescribed doses
Description: (§1) HUMAN TUMOR CELL LINE ASSAY
(§2) Maintenance of Cell Line HCT-8 human colon tumor cells are grown in RPMl 1640 medium (GIBCO). A-549 human lung carcinoma cells and MD-AMB-231 human breast cancer cells are cultured in Dulbecco medium (Biologos, Inc.). All media are supplemented with 10% fetal bovine serum and contain 50 ug/ml gentamycin. All human tumor cell lines are incubated at 5% CO2 at 37° and subcultured once a week. The seeding levels are 350,000 MCF-7 cells, 60,000 HCT-8 cells and 300,000 A-549 cells per T-25 Flask. Vinblastine is used as a positive control.
(§3) 2. Incubate in a CO2 -incubator for 48 hours.
(§4) 3. Add composition to each well and incubate for an additional 120 hours.
(§5) 4. Discard medium and stain with methylene blue (HCT-8) or crystal violet (A-549 and MD-AMB-231).
(§6) 5. Compare cell density of drug-treated well with that of the control (no drug added) as follows: ND (not detectable), >90%; 1+, 75-90%; 2+, 50-74%; 3+, 25-49%, 4+, >25% of control growth.

[2] = system: P388 mouse leukemia cells; assay: P388 mouse leukemia cell assay; settings: 48 hours
Description: P388 MOUSE LEUKEMIA CELL ASSAY
P388 mouse leukemia cells are grown in Dulbecco MEM medium with 10% horse serum, 4 mM glutamine, and 20 ug/ml gentamycin (Biologos, Inc.). Cells are incubated in 10% CO2 and subcultured 2 times per week.
1. Add composition to each well of a 24-well plate or tube and allow solvent to evaporate to dryness.
2. Add 2 ml (1.2×10^5) cells to each well or tube and mix.
3. Incubate in 10% CO2 at 37° for 48 hours.
4. Read plates with an inverted microscope, scoring activity from 1+ to 4+ as follows: ND (not detectable), >90%; 1+, 75-90%; 2+, 50-74%; 3+, 25-49%; 4+, <25% of control growth. Alternatively, the activity may be designated as IC50 concentration which is the concentration of composition required to inhibit 50% of cell growth on the plate.
Cell counts are performed on each tube and results are reported as percent of control.

[3] = system: A-549 human lung carcinoma cells; assay: Human tumor cell line assay, A-549 (lung); settings: 120 hours, read-out: Activity at prescribed doses
Description: as §1, §2, §3, §4, §5, §6

[4] = system: MD-AMB-231 human breast cancer cells; assay: Human tumor cell line assay, MD-AMB-231 (mammary); settings: 120 hours, read-out: Activity at prescribed doses
Description: as §1, §2, §3, §4, §5, §6

CN1CC(c2c[nH]c3c(Br)c(Br)cc(O)c23)NCC1c1c[nH]c2cc(Br)ccc12 (stereo not shown) [Biemnidin (1), biemnidin]
activity at 1 µg/mL ([1]; HCT-8, 1 μg/ml): > 90% | activity at 10 µg/mL ([1]; HCT-8, 10 μg/ml): > 25% | activity at 50 µg/mL ([1]; HCT-8, 50 μg/ml): > 25% | IC50 [2]: 15 µg/mL (≈ 25.7 µM) | activity at 1 µg/mL ([3]; A549, A-549, 1 μg/ml): > 90% | activity at 10 µg/mL ([3]; A549, A-549, 10 μg/ml): > 25% | activity at 50 µg/mL ([3]; A549, A-549, 50 μg/ml): > 25% | activity at 1 µg/mL ([4]; MDA-MB-231, MD-AMB-231, 1 μg/ml): > 90% | activity at 10 µg/mL ([4]; MDA-MB-231, MD-AMB-231, 10 μg/ml): > 25% | activity at 50 µg/mL ([4]; MDA-MB-231, MD-AMB-231, 50 μg/ml): > 25%
